# Legend:
# VEGFR-2 = biological target: T1, VEGFR-2 (Homo sapiens, UniProt P35968); experiment: VEGFR-2 relative quantification by flow cytometry in HT-29 cells; assay type: cell-based; details: HT-29 cells, 20 μM, 24 h, relative to DMSO control = 100
# T1 construct: assess the effect of our new ureas on these two proteins only on the HT-29 cancer cell line through the use of flow cytometry; endogenous in cells; host or cells: HT-29
# Procedure: (§1) The cells were incubated for a period of time of one day with doses of each of the selected compounds at two different doses: 20 and 100 µM concentrations.
# (§2) The effects of the compounds on the target in the cancer cell lines compounds were tested using 20 and 100 µM doses. For that, 10^5 cells per well were seeded on a 12-well plate for 24 h with the corresponding dose of the tested compound in a total volume of 500 μL of cell media. To determine the total PD-L1 and VEGFR-2, the cells were collected and fixed with 4% in a PBS of formaldehyde. After this, a treatment with 0.5% in PBS Triton^TM X-100 permeabilized the membranes.
# (§3) To determine surface PD-L1 and VEGFR-2, the assay used was similar to the above but avoided the permeabilization step (Triton^TM X-100).
# PD-L1 = biological target: T2, PD-L1 (Homo sapiens, UniProt Q9NZQ7); experiment: PD-L1 relative quantification by flow cytometry in HT-29 cells; assay type: cell-based; details: for total PD-L1 (%) expression: HT-29 cells, 24 h, relative to DMSO control = 100
# T2 construct: assess the effect of our new ureas on these two proteins only on the HT-29 cancer cell line through the use of flow cytometry; endogenous in cells; host or cells: HT-29
# T2 sequence (Q9NZQ7 19-290): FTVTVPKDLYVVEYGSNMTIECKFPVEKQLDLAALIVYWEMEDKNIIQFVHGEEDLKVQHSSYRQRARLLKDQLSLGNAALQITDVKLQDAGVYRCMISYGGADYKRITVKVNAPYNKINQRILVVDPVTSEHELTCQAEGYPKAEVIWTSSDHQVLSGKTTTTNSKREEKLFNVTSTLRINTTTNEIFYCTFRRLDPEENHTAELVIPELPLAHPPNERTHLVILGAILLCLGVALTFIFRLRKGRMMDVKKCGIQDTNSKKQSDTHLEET
# Procedure: as §1
# as §2, with “membranes. Finally, the cells were treated with FITC Mouse monoclonal Anti-Human VEGFR-2 (ab184903) and Alexa Fluor® 647 Rabbit monoclonal Anti-PD-L1 (ab215251).” for “membranes.”
# as §3
# [1] = test system: HT-29 (colon adenocarcinoma); experiment: MTT cell proliferation assay, HT-29; assay type: cell-based; details: Homo sapiens, HT-29; MTT, 48 h treatment; read-out: IC50 HT-29
# Procedure: (§4) After the supernatant was discarded, we solved the formazan crystal in 100 µL of DMSO. The absorbance was then registered at 550 nm using a plate lector. For all concentrations of any compound, cell viability was expressed as the percentage of the ratio between the mean absorbance of the treated cells and the mean absorbance of the untreated cells. Three to five experiments were performed to establish the IC50 values (i.e., concentration half inhibiting cell proliferation, we used GraphPad Prism 7 software).
# [2] = test system: HEK-293 (human embryonic kidney cells); experiment: MTT cell proliferation assay, HEK-293; assay type: cell-based; details: HEK293, 48 h treatment
# Procedure: (§5) The action on cell proliferation caused by our developed compounds was studied using an MTT assay using the human tumor cell lines of HT-29 (colon adenocarcinoma) and A-549 (pulmonary adenocarcinoma), as well as toward the non-tumor cell line HEK-293 (human embryonic kidney cells), Jurkat T-cells and human microvessel endothelial cells (HMEC-1).
# (§6) In general, 5 × 10^3 (HT-29, A549, HMEC-1, Jurkat and HEK-293) cells per well were seeded in 96-well plates with 1:1 dilutions of the compounds in a volume of 100 μL of the cell media. The 3-(4,5-dimethylthiazol-2-yl)-2,5-diphenyltetrazolium bromide (MTT; Sigma Chemical Co.) dye exclusion assay was performed, and after 48 h (37 °C, 5% CO2 in a humid atmosphere), 10 μL of MTT (5 mg/mL in phosphate-buffered saline, PBS) was added to each well and incubated for 3 h at 37 °C. After the supernatant was discarded, we solved the formazan crystal in 100 µL of DMSO. The absorbance was then registered at 550 nm using a plate lector. For all concentrations of any compound, cell viability was expressed as the percentage of the ratio between the mean absorbance of the treated cells and the mean absorbance of the untreated cells. Three to five experiments were performed to establish the IC50 values (i.e., concentration half inhibiting cell proliferation, we used GraphPad Prism 7 software).
# CD11b = CD11b detection on membrane of co-cultured THP-1; assay type: cell-based, human; details: 1:5 HT-29/THP-1; 24 h; relative to non-treated co-cultured THP-1
# From the text: (§7) Reducing the expression of CD11b has become a promising target for immune modulation in anticancer therapies. For that reason, we decided to study the effect of our compounds on CD11b in THP-1 cells co-cultured with HT-29. We also determined the relative amount of CD80, a common surface marker for monocytes.
# (§8) The results are related to non-treated THP-1 cells when they were co-cultured with HT-29.
# (§9) The action of the compounds on CDs in co-cultured THP-1 immune cells with cancer cell line HT-29 was tested by treating them with the compounds for 24 h/48 h (see Section 4.2.5). Surface CD11b and CD80 was determined by collecting THP-1 with trypsin, fixing with formaldehyde and staining with FITC Mouse monoclonal Anti-Human CD80 (Sigma-Aldrich SAB4700142) and Alexa Fluor® 647 Rabbit monoclonal Anti-CD11b (Merck #MABF366, Rahway, NJ, USA).
# [3] = test system: THP-1 cells co-cultured with HT-29; experiment: Immune cell proliferation in co-cultures of HT-29/THP-1; assay type: cell-based, human; details: 100 μM
# Procedure: We also determined the effect of the selected compounds on the human monocyte cells THP-1 in the described co-cultures (see Table 6).
# (§10) To determine the action of the compounds on cancer cell proliferation in co-culture with immune cells, 10^5 or 2 × 10^5 of the HT-29 cells line were seeded in each well of 12-well plates and left at 37 °C for 24 h. Then, the cancer cells were treated with IFN-γ (10 ng/mL; human, Invitrogen®, Waltham, MA, USA) containing 5 × 10^5 or 10^5, respectively, of THP-1 cells per well and the corresponding compound at 100 μM or DMSO for the positive control. After 24 h/48 h of incubation, the supernatants were collected to establish the alive THP-1 cells using FSC and SCC flow cytometry. In addition, cancer cells were collected with trypsin, fixed with 4% in PBS paraformaldehyde and counted using flow cytometry.
# [4] = test system: HT-29 cells co-cultured with THP-1; experiment: Cancer cell proliferation in co-cultures of HT-29 and THP-1; assay type: cell-based, human; details: 100 μM
# Procedure: To establish the potential of the selected compounds as immunomodulator agents, we studied the effect of the selected compounds on HT-29 cell proliferation when co-cultured with human monocytic leukemia cell line THP-1. For the study, we used different proportions of cancer and immune cells. Standard protocol proportions were 1:5 cancer/immune cells. We include a test using a 2:1 proportion of HT-29 cells to THP-1 cells. The tests were performed for two periods of time: 24 and 48 h, using 100 μM doses of the selected compounds and BMS-8 as the reference compound.
# as §10
# Jurkat T-cells = experiment: MTT cell proliferation assay, Jurkat T-cells; assay type: cell-based; details: 48 h treatment
# Procedure: as §5, §6
# CD80 = CD80 detection on membrane of co-cultured THP-1; assay type: cell-based, human; details: 1:5 HT-29/THP-1; 24 h; relative to non-treated co-cultured THP-1
# From the text: as §7, §8, §9
# [5] = test system: A-549 (pulmonary adenocarcinoma); experiment: MTT cell proliferation assay, A-549; assay type: cell-based; details: Homo sapiens, A549; MTT, 48 h treatment; read-out: IC50 A-549
# Procedure: as §4
# [6] = test system: human microvessel endothelial cells (HMEC-1); experiment: MTT cell proliferation assay, HMEC-1; assay type: cell-based; details: 48 h treatment
# Procedure: as §5, §6
# HMEC-1 endothelial cells = experiment: Microvessel formation inhibition assay on Matrigel; assay type: cell-based, human; details: HMEC-1 on Matrigel
# Procedure: The antiangiogenic action of the selected compounds, as well as the reference compounds, was evaluated by determining the effect on the formation of new microvessels formed by HMEC-1 endothelial cells on a Matrigel matrix.
# We used IBIDI μ-slide angiogenesis plates (IBIDI, Martins ried, Germany). The wells were coated with 15 μL of Matrigel® (10 mg/mL, BD Biosciences, San Jose, CA, USA) at 4 °C and incubated at 37 °C for at least 30 min. Afterward, the HMEC-1 cells were seeded at 2 × 10^4 cells/well in 25 μL of medium and were left for 30 min at 37 °C while they attached. Then, the compounds were added in serial doses in 25 μL of the medium, and after several hours (maximum 24 h) of incubation at 37 °C, pictures for the wells were taken to evaluate the formation of microvessels.
# T1 sequence (P35968 20-1356): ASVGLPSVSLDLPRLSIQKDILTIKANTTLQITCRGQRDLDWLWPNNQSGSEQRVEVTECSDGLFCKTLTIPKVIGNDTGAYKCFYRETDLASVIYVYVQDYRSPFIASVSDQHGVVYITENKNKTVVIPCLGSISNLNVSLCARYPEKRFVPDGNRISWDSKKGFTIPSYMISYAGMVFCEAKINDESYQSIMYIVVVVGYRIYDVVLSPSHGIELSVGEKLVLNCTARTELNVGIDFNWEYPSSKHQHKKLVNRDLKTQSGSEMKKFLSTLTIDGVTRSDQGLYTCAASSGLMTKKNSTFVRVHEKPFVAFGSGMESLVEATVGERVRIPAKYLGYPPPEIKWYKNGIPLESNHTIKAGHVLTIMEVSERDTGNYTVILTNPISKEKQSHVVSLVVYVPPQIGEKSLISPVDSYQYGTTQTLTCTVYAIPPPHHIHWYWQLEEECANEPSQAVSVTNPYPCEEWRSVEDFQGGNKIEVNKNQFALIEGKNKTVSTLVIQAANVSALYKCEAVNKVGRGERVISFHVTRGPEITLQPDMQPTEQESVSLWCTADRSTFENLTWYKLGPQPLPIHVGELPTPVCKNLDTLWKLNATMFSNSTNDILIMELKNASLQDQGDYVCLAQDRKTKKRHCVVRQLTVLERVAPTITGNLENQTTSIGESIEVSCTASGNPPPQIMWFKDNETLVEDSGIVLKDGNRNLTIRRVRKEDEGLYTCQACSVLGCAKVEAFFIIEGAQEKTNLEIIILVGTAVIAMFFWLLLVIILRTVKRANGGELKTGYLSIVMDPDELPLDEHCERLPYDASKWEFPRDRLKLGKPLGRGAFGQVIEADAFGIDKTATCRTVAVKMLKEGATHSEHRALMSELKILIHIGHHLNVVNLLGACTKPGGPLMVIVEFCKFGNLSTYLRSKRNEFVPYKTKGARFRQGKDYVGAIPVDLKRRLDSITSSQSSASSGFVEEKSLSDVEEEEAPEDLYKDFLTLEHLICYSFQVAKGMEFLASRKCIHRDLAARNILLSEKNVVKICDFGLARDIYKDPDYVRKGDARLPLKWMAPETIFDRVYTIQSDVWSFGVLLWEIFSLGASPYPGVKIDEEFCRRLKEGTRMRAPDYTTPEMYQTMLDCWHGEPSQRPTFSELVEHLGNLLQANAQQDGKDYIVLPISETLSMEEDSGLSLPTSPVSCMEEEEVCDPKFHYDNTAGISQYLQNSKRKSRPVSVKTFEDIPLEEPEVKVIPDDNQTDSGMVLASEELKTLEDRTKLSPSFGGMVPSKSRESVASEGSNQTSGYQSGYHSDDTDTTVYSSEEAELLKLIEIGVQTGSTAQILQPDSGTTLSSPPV
IC50 [1] [µM],"IC50 (Jurkat T-cells; Homo sapiens, Jurkat, 48 h) [µM]",IC50 [5] [µM],melting point [°C],IC50 (Jurkat T-cells) [µM],SMILES,IC50 [2] [µM],"IC50 ([6]; Homo sapiens, HMEC-1, 48 h) [µM]",further results
19 ± 2,> 100,6 ± 1,–,–,"Cc1c(COc2ccc(CN3CCCCC3C(=O)O)cc2Br)cccc1-c1ccccc1 (stereo not drawn) [BMS-8, reference compound]",60 ± 10,–,"total VEGFR-2 (%) expression (VEGFR-2): 86 ± 21%; inhibition of PD-L1 expression (PD-L1; HT-29, total PD-L1, 20 μM): around 15%; total PD-L1 (%) expression (PD-L1; 20 μM): 82 ± 21%; total PD-L1 (%) expression (PD-L1; 100 μM): 67 ± 20%; % CD11b expression in membrane of THP-1 (CD11b): 79 ± 5%; THP-1 cell proliferation in co-culture ([3]; 1:5 HT-29/THP-1, 24 h): 158 ± 6; THP-1 cell proliferation in co-culture ([3]; 1:5 HT-29/THP-1, 48 h): 124 ± 0; THP-1 cell proliferation in co-culture ([3]; 2:1 HT-29/THP-1, 24 h): 385 ± 12; THP-1 cell proliferation in co-culture ([3]; 2:1 HT-29/THP-1, 48 h): 186 ± 10; HT-29 cancer cell proliferation in co-culture ([4]; 1:5 HT-29/THP-1, 24 h): 11 ± 6; HT-29 cancer cell proliferation in co-culture ([4]; 1:5 HT-29/THP-1, 48 h): 21 ± 3; HT-29 cancer cell proliferation in co-culture ([4]; 2:1 HT-29/THP-1, 24 h): 8 ± 1; HT-29 cancer cell proliferation in co-culture ([4]; 2:1 HT-29/THP-1, 48 h): 16 ± 2; % CD80 expression in membrane of THP-1 (CD80): 93 ± 3%"
25 ± 5,> 100,> 100,157 to 159,–,COc1ccc(CCCc2cccc(NC(=O)Nc3ccccc3)c2)cc1 [C.2],12 ± 1,> 100,–
> 100,> 100,> 100,154,–,COc1ccc(CCCc2cccc(NC(=O)Nc3cccc(F)c3)c2)cc1 [C.4],22 ± 5,> 100,–
58 ± 16,> 100,29 ± 5,152,–,COc1ccc(CCCc2cccc(NC(=O)Nc3ccccc3F)c2)cc1 [C.5],24 ± 4,> 100,–
4 ± 1,> 100,20 ± 10,179 to 182,–,COc1ccc(CCCc2cccc(NC(=O)Nc3ccc(Cl)cc3)c2)cc1 [C.6],4 ± 1,> 100,–
14 ± 3,~20,19 ± 1,143 to 147,17 ± 1,COc1ccc(CCCc2cccc(NC(=O)Nc3cccc(Cl)c3)c2)cc1 [C.7],14 ± 3,~20,IC50 [6]: 18 ± 8 µM
47 ± 2,> 100,> 100,134 to 136,–,COc1ccc(CCCc2cccc(NC(=O)Nc3ccccc3Cl)c2)cc1 [C.8],37 ± 8,> 100,–
1.9 ± 0.6,> 100,7 ± 1,–,–,COc1ccc(CCCc2cccc(NC(=O)Nc3ccc(Br)cc3)c2)cc1 [C.9],2.1 ± 0.2,> 100,–
11 ± 2,~20,8 ± 2,141 to 144,18 ± 7,COc1ccc(CCCc2cccc(NC(=O)Nc3cccc(Br)c3)c2)cc1 [C.10],9 ± 4,~20,IC50 [6]: 17 ± 7 µM
15 ± 4,~20,20 ± 5,137 to 140,26 ± 18,COc1ccc(CCCc2cccc(NC(=O)Nc3ccccc3Br)c2)cc1 [C.11],27 ± 4,~20,IC50 [6]: 25 ± 1 µM
8 ± 5,~20,18 ± 5,107 to 110,24 ± 4,COc1ccc(CCCc2cccc(NC(=O)Nc3cccc(OC)c3)c2)cc1 [C.13],15 ± 3,~20,–
17 ± 4,–,27 ± 2,–,–,"CNC(=O)c1cc(Oc2ccc(NC(=O)Nc3ccc(Cl)c(C(F)(F)F)c3)cc2)ccn1 [Sorafenib, sorafenib, reference compound]",5 ± 0.7,34 ± 3,"effect on total PD-L1 (PD-L1; HT-29, at either of the tested doses (20 and 100 μM)): No significant effect; total PD-L1 (%) expression (PD-L1; 20 μM): 96 ± 49%; total PD-L1 (%) expression (PD-L1; 100 μM): 102 ± 10%; Minimum Active Conc. inhibiting microtube formation (HMEC-1 endothelial cells): 10 µM"
–,–,–,–,–,"CCN(CC)CCNC(=O)c1c(C)[nH]c(/C=C2\C(=O)Nc3ccc(F)cc32)c1C [Sunitinib, reference compound]",–,–,Minimum Active Conc. inhibiting microtube formation (HMEC-1 endothelial cells): 3 µM

# — paper PMC10302582, “Unveiling the Potential of BenzylethyleneAryl–Urea Scaffolds for the Design of New Onco Immunomodulating Agents” (Pharmaceuticals, 2023)
